The source of these data is patent US20140370594A1, “BIOLOGICAL CONVERSION OF BIOMASS-DERIVED SUGARS TO VALUE ADDED CHEMICALS” (WISCONSIN ALUMNI RESEARCH FOUNDATION, priority 2013, published 2014).

SMILES strings stand for the structures.

The subject of one data set is E. coli and yeasts. Briefly: Sensitivity of growth to GVL versus NaCl concentration (FIGS. 9-13). The data set is classed as cell-based. The conditions noted are these: minimal media supplemented with GVL or NaCl, aerobic. An excerpt:
(§1) Test media for E. coli and P. putida were made using MOPS minimal salts and either varying the weight percent of NaCl and GVL or varying dilutions of the aqueous product stream in water. L. casei test media were made using Chemically Defined Media for L. casei and yeast aerobic test media were made with Yeast Nitrogen Base (6.7 g/L; Difco, a wholly owned subsidiary of Becton Dickinson and Company, Franklin Lakes, N.J.). Yeast anaerobic media were made with Yeast Nitrogen Base and supplemented with Tween 80 (0.4 wt %) and amino acids (50 mg/L).
The next step was to investigate the sensitivity of various microorganisms to salt concentration and GVL concentration. This was accomplished by measuring the growth of E. coli and yeasts in minimal media supplemented with known concentrations of GVL or NaCl under aerobic conditions. The results are depicted in FIGS. 9 through 13. FIG. 9 depicts the growth characteristics of E. coli TY05 in response to increasing concentrations of GVL. FIG. 10 depicts the growth characteristics of S. cerevisiae in response to increasing concentrations of GVL. FIG. 11 depicts the growth characteristics of S. cerevisiae PE2 in response to increasing concentrations of NaCl. FIG. 12 depicts the growth characteristics of S. passalidarum NN245 in response to increasing NaCl concentration. […]

In a further data set the test system is E. coli. Briefly: Growth in minimal media supplemented with GVL, aerobic (FIGS. 9-13). The format is cell-based, Escherichia coli. The settings on record: GVL concentrations of about 2% (wt/vol) and less, minimal medium. On the procedure: Overnight cultures of E. coli were started from single colonies picked into LB (5 mL) and incubated at 37° C. […] with 250 rpm shaking. The overnight cultures were used to inoculate test media (2 mL) to an OD600 (optical density at 600 nm) of 0.01. These cultures were then incubated as described below. The final OD600 of each culture was measured after 24 hours of incubation.
as §1
The next step was to investigate the sensitivity of various microorganisms to salt concentration and GVL concentration. This was accomplished by measuring the growth of E. coli and yeasts in minimal media supplemented with known concentrations of GVL or NaCl under aerobic conditions. The results are depicted in FIGS. 9 through 13. FIG. 9 depicts the growth characteristics of E. coli TY05 in response to increasing concentrations of GVL. […]

The next data set deals with yeast. Described as above. The format is cell-based. The settings on record: GVL concentrations of about 2% (wt/vol) and less, minimal medium. On the procedure:
Yeast cultures were picked from single colonies and grown aerobically overnight in rich YPD broth (5 mL) (Sigma-Aldrich, St. Louis, Mo.) at 30° C. and 250 rpm. The yeast tested were Saccharomyces cerevisiae PE2 (Lallemand, Inc., Montreal, Quebec, Canada; see also Silva-Filho E A, Melo H F, Antunes D F, Santos S K B, Resende A M, Simões D A, Morais M A Jr, “Isolation by genetic and physiological characteristics of a fuel-ethanol fermentative Saccharomyces cerevisiae strain with potential for genetic manipulation,” J Ind Microbiol Biotechnol 2005, 32:481-486), Spathaspora passalidarum NN245 (ARS Culture Collection, NRRL Y-50740), Scheffersomyces stipitis 7124 (ATCC® 58376), and Scheffersomyces stipitis 6054 (ATCC® 58785).
For the aerobic test media growth experiments, an overnight culture was used to inoculate test media (2 mL) to an OD600 of 0.01. The test cultures were then incubated for 40 hours under the same conditions. A final OD600 was measured after the 40-hour incubation period.
Test media for E. coli and P. putida were made using MOPS minimal salts and either varying the weight percent of NaCl and GVL or varying dilutions of the aqueous product stream in water. […]

For the molecule `CC1CCC(=O)O1` (stereo not drawn) [GVL, gamma-valerolactone], the “impact of concentration on cell growth as compared to NaCl” value with E. coli and yeasts was “stronger impact on cell growth”. Further, the “growth in the presence of GVL” value with E. coli and in the data set with yeast was “very significant growth” each time.
